In this assay the target is T1, recombinant guanylate cyclase reporter cell line (Rattus norvegicus, UniProt P19686+P20595).
T1 construct: expressed in transfected cells
T1 sequence (P20595 1-619): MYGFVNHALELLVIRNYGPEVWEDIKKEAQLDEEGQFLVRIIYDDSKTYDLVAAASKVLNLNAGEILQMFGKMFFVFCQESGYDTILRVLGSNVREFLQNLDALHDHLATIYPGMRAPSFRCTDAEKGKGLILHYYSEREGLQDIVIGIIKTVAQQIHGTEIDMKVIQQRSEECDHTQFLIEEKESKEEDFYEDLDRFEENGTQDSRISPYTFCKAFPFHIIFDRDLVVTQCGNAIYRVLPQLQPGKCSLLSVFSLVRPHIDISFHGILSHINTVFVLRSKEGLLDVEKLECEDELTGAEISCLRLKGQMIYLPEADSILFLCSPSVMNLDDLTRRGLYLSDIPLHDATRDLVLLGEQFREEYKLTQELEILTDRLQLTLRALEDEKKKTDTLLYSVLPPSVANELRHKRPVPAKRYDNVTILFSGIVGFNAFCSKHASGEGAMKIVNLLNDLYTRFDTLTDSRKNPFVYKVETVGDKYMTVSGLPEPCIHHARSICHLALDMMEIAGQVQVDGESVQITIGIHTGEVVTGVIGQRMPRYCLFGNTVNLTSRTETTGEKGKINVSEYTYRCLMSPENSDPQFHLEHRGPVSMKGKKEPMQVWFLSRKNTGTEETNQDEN
T1 sequence (P19686 1-690): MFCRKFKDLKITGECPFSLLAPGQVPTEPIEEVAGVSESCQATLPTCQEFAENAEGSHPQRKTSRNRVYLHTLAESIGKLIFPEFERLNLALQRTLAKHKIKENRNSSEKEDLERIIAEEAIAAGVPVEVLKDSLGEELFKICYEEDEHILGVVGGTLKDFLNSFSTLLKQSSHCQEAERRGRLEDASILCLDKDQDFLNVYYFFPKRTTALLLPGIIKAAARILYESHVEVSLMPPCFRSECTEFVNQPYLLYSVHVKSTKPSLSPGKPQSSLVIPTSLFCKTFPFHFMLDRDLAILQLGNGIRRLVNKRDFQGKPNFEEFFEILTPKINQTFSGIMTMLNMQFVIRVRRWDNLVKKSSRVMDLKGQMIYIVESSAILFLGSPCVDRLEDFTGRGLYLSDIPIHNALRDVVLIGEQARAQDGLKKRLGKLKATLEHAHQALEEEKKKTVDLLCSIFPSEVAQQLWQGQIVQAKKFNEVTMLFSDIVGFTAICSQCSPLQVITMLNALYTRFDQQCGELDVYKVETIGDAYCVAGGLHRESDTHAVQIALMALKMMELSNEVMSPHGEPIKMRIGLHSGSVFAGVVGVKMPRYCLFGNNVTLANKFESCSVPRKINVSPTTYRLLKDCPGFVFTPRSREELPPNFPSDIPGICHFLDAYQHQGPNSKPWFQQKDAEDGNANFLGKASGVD
The assay can be described thus: B-2. Action on recombinant guanylate cyclase reporter cell line. It is filed as cell-based. Particulars: MEC = minimal effective concentration; in some cases mean values from individual determinations. The essentials:
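Compounds are tested on whole cells carrying a guanylate cyclase reporter construct. The lowest concentration giving an effect is recorded as the MEC.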

Take `Cc1nc2c(OCc3c(F)cccc3F)cc(Cl)cn2c1C(=O)NCC(C)(N)C(F)(F)F` (single isomer, unassigned) [Example 238, ent-N-(2-Amino-3,3,3-trifluoro-2-methylpropyl)-6-chloro-8-[(2,6-difluorobenzyl)oxy]-2-methylimidazo[1,2-a]pyridine-3-carboxamide]: the MEC was found to be 1.00 µM. The value for `Cc1cc(OCc2c(F)cccc2F)c2nc(C)c(C(=O)NCC(C)(N)C(F)(F)F)n2c1` (single isomer, unassigned) [Example 240, ent-N-(2-Amino-3,3,3-trifluoro-2-methylpropyl)-8-[(2,6-difluorobenzyl)oxy]-2,6-dimethylimidazo-[1,2-a]pyridine-3-carboxamide] was 0.30 µM. For `Cc1cc(OCc2c(F)cccc2F)c2nc(C)c(C(=O)NCC(C)(N)C(F)(F)F)n2c1` (single isomer, unassigned) [Example 241, ent-N-(2-Amino-3,3,3-trifluoro-2-methylpropyl)-8-[(2,6-difluorobenzyl)oxy]-2,6-dimethylimidazo-[1,2-a]pyridine-3-carboxamide], the MEC stood at 0.30 µM. Next, `COCC(N)CNC(=O)c1c(C)nc2c(OCc3c(F)cccc3F)cc(C)cn12` (single isomer, unassigned) [Example 242, ent-N-(2-Amino-3-methoxypropyl)-8-[(2,6-difluorobenzyl)oxy]-2,6-dimethylimidazo[1,2-a]-pyridine-3-carboxamide]: 0.30 µM; `COCC(N)CNC(=O)c1c(C)nc2c(OCc3c(F)cccc3F)cc(C)cn12` (single isomer, unassigned) [Example 243, ent-N-(2-Amino-3-methoxypropyl)-8-[(2,6-difluorobenzyl)oxy]-2,6-dimethylimidazo[1,2-a]-pyridine-3-carboxamide]: 1.00 µM. Consider `CCCC(C)(N)CNC(=O)c1c(C)nc2c(OCc3c(F)cccc3F)cc(Cl)cn12` (single isomer, unassigned) [Example 245, ent-N-(2-Amino-2-methylpentyl)-6-chloro-8-[(2,6-difluorobenzyl)oxy]-2-methylimidazo[1,2-a]-pyridine-3-carboxamide], for which the MEC was 0.10 µM. The value for `CCCC(C)(N)CNC(=O)c1c(C)nc2c(OCc3c(F)cccc3F)cc(Cl)cn12` (single isomer, unassigned) [Example 246, ent-N-(2-Amino-2-methylpentyl)-6-chloro-8-[(2,6-difluorobenzyl)oxy]-2-methylimidazo[1,2-a]-pyridine-3-carboxamide] was 0.30 µM; that for `COCC(N)CNC(=O)c1c(C)nc2c(OCc3c(F)cccc3F)cccn12` (single isomer, unassigned) [Example 247, ent-N-(2-Amino-3-methoxypropyl)-8-[(2,6-difluorobenzyl)oxy]-2-methylimidazo[1,2-a]pyridine-3-carboxamide] was 3.00 µM. In the case of `CCCC(C)(N)CNC(=O)c1c(C)nc2c(OCc3c(F)ccc(F)c3F)cc(C)cn12` (single isomer, unassigned) [Example 295, ent-N-(2-amino-2-methylpentyl)-2,6-dimethyl-8-[(2,3,6-trifluorobenzyl)oxy]imidazo[1,2-a]pyridine-3-carboxamide], the MEC is 0.10 µM. For the compound `CCCC(C)(N)CNC(=O)c1c(C)nc2c(OCc3c(F)ccc(F)c3F)cc(C)cn12` (single isomer, unassigned) [Example 304, ent-N-(2-amino-2-methylpentyl)-2,6-dimethyl-8-[(2,3,6-trifluorobenzyl)oxy]imidazo[1,2-a]pyridine-3-carboxamide], the MEC was 0.10 µM. Next, `Cc1cc(OCc2c(F)cccc2F)c2nc(C)c(C(=O)NC3CCC(N)C3)n2c1` (single isomer, unassigned) [Example 309, ent-N-(3-aminocyclopentyl)-8-[(2,6-difluorobenzyl)oxy]-2,6-dimethylimidazo[1,2-a]pyridine-3-carboxamide]: 0.30 µM; `Cc1nc2c(OCc3c(F)cccc3F)cccn2c1C(=O)NC(CN)CC(C(F)(F)F)C(F)(F)F` (single isomer, unassigned; enantiomer a) [Example 7, ent-N-[1-Amino-5,5,5-trifluoro-4-(trifluoromethyl)pentan-2-yl]-8-[(2,6-difluorobenzyl)oxy]-2-methylimidazo[1,2-a]pyridine-3-carboxamide (Enantiomer A)]: 1.00 µM.

`Cc1nc2c(OCc3c(F)cccc3F)cccn2c1C(=O)NC(CN)c1ccc(F)c(F)c1` (single isomer, unassigned; enantiomer a) [Example 12, ent-N-[2-Amino-1-(3,4-difluorophenyl)ethyl]-8-[(2,6-difluorobenzyl)oxy]-2-methylimidazo[1,2-a]-pyridine-3-carboxamide (Enantiomer A)]: the MEC is 1.00 µM. Turning to `Cc1nc2c(OCc3c(F)cccc3F)cccn2c1C(=O)NC(C)CN` (single isomer, unassigned; enantiomer a) [Example 19, ent-N-(1-Aminopropan-2-yl)-8-[(2,6-difluorobenzyl)oxy]-2-methylimidazo[1,2-a]pyridine-3-carboxamide (Enantiomer A)], the MEC is 1.66 µM.

With `Cc1nc2c(OCc3c(F)cccc3F)cc(Cl)cn2c1C(=O)NCC(C)N` (single isomer, unassigned; enantiomer a) [Example 29, ent-N-(2-Aminopropyl)-6-chloro-8-[(2,6-difluorobenzyl)oxy]-2-methylimidazo[1,2-a]pyridine-3-carboxamide (Enantiomer A)], the MEC came out at 0.20 µM. For `Cc1cc(OCc2c(F)cccc2F)c2nc(C)c(C(=O)NCC(C)(N)C3CC3)n2c1` (single isomer, unassigned; enantiomer a) [Example 260, ent-N-(2-Amino-2-cyclopropylpropyl)-8-[(2,6-difluorobenzyl)oxy]-2,6-dimethylimidazo[1,2-a]-pyridine-3-carboxamide (Enantiomer A)], the MEC worked out at 0.10 µM. Consider `Cc1nc2c(OCc3c(F)cccc3F)cccn2c1C(=O)NCC(C)(N)CCOCc1ccccc1` (single isomer, unassigned; enantiomer a) [Example 266, ent-N-[2-Amino-4-(benzyloxy)-2-methylbutyl]-8-[(2,6-difluorobenzyl)oxy]-2-methylimidazo[1,2-a]pyridine-3-carboxamide (Enantiomer A)], for which the MEC stood at 0.03 µM. Next, `Cc1cc(OCc2c(F)cccc2F)c2nc(C)c(C(=O)NCC(C)(N)CO)n2c1` (single isomer, unassigned; enantiomer a) [Example 268, ent-N-(2-Amino-3-hydroxy-2-methylpropyl)-8-[(2,6-difluorobenzyl)oxy]-2,6-dimethylimidazo-[1,2-a]pyridine-3-carboxamide (Enantiomer A)]: 0.55 µM; `Cc1cc(OCc2c(F)cccc2F)c2nc(C)c(C(=O)NCC(C)(N)CCO)n2c1` (single isomer, unassigned; enantiomer a) [Example 271, ent-N-(2-Amino-4-hydroxy-2-methylbutyl)-8-[(2,6-difluorobenzyl)oxy]-2,6-dimethylimidazo[1,2-a]pyridine-3-carboxamide (Enantiomer A)]: 0.30 µM.

Source of the values: patent US9624214B2, “Amino-substituted imidazo[1,2-a]pyridinecarboxamides and their use” (BAYER PHARMA AKTIENGESELLSCHAFT, priority 2012, dated 2017).
